Data taken from the supplement of paper PMC12076712.

Legend:
Assay in all cases: pIC50, kinobeads binding competition
[1] = molecular target: T1, KSR1 (UniProt Q8IVT5)
T1 sequence (whole entry): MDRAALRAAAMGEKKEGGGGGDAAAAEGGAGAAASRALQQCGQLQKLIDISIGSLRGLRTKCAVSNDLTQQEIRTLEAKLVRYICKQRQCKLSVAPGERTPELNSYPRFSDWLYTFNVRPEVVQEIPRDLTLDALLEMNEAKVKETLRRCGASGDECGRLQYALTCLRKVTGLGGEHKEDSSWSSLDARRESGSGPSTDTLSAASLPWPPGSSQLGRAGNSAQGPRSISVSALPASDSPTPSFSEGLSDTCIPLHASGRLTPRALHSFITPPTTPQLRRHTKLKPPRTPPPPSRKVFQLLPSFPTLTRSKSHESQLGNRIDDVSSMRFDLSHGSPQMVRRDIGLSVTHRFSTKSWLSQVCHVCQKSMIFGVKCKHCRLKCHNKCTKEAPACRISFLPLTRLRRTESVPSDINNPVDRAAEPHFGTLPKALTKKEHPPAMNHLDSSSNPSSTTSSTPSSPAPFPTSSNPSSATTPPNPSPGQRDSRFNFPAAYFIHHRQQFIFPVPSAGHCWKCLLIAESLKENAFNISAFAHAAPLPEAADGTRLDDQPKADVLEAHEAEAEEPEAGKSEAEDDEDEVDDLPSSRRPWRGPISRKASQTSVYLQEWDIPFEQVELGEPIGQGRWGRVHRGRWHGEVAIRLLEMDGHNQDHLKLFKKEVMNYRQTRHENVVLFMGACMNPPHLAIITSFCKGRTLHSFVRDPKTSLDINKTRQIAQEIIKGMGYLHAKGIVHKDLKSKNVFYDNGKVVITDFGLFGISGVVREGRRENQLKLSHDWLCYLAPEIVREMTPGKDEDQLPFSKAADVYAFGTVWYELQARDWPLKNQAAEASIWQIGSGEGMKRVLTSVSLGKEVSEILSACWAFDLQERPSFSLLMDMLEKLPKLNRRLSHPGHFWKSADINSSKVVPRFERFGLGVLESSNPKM
Method in brief: (§1)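 To obtain pIC50, fold changes versus vehicle were fitted to logistic dose-response curves (R drc package) across biological duplicates. Protein binding to Kinobeads was quantified by TMT10 LC-MS/MS of digested bead-bound proteins. Treatments used nine concentrations with a top of 30 μM, applied to live Jurkat cells in 1:4 steps for 60 min at 37 °C before lysis, or to Jurkat lysate or a 1:1:1:1 HEK293/K-562/HepG2/placenta lysate mix in 1:5 steps for 60 min at 4 °C.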

[2] = molecular target: UniProt P00519
Method in brief: as §1

[3] = molecular target: UniProt Q00537
Method in brief: as §1

[4] = molecular target: TNIK (UniProt Q9UKE5)
Method in brief: as §1

[5] = molecular target: CSF1R (UniProt P07333); conditions: cell material: Lysate mix
Method in brief: as §1

[6] = molecular target: T2, UniProt P52564
T2 sequence (whole entry): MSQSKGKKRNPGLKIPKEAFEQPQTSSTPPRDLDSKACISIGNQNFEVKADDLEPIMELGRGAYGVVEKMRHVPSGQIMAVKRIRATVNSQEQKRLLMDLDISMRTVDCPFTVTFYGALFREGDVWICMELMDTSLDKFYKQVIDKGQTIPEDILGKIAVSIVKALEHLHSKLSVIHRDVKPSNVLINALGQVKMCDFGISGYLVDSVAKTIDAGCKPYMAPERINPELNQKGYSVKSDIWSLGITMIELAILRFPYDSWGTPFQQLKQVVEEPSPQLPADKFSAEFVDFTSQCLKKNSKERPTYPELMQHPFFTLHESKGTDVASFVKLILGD
Method in brief: as §1

[7] = molecular target: UniProt Q9Y2H1
Method in brief: as §1

[8] = molecular target: RPS6KA4 (UniProt O75676)
Method in brief: as §1

[9] = molecular target: T3, SGK2 (UniProt Q9HBY8); conditions: cell material: Lysate mix
T3 sequence (whole entry): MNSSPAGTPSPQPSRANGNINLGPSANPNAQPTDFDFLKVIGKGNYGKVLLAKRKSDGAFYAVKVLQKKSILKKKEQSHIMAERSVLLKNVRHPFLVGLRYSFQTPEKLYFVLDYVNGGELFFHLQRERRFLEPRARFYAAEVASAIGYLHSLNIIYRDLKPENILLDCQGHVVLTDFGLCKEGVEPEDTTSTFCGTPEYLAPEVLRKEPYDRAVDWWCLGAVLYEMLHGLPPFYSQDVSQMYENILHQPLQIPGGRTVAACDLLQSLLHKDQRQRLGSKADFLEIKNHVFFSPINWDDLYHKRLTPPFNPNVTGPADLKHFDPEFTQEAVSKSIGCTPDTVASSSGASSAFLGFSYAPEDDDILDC
Method in brief: as §1

[10] = molecular target: CDK4 (UniProt P11802); conditions: cell material: Lysate mix
Method in brief: as §1

Chain of UniProt Q00537 (Q00537 whole entry, looked up): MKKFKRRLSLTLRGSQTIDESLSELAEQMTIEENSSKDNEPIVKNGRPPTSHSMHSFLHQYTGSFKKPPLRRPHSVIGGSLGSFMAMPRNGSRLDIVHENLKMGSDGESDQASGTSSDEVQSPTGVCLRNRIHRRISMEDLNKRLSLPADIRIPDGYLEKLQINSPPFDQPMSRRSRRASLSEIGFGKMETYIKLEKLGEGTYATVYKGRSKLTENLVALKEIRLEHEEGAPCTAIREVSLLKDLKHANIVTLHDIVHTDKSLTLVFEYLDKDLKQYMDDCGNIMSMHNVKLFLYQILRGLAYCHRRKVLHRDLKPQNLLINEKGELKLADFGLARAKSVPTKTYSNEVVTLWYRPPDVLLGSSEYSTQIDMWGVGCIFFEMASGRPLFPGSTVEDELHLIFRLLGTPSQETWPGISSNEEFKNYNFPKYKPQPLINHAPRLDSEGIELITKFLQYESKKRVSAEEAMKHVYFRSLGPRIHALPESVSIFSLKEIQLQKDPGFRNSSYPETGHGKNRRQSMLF
Chain of CSF1R (P07333 whole entry): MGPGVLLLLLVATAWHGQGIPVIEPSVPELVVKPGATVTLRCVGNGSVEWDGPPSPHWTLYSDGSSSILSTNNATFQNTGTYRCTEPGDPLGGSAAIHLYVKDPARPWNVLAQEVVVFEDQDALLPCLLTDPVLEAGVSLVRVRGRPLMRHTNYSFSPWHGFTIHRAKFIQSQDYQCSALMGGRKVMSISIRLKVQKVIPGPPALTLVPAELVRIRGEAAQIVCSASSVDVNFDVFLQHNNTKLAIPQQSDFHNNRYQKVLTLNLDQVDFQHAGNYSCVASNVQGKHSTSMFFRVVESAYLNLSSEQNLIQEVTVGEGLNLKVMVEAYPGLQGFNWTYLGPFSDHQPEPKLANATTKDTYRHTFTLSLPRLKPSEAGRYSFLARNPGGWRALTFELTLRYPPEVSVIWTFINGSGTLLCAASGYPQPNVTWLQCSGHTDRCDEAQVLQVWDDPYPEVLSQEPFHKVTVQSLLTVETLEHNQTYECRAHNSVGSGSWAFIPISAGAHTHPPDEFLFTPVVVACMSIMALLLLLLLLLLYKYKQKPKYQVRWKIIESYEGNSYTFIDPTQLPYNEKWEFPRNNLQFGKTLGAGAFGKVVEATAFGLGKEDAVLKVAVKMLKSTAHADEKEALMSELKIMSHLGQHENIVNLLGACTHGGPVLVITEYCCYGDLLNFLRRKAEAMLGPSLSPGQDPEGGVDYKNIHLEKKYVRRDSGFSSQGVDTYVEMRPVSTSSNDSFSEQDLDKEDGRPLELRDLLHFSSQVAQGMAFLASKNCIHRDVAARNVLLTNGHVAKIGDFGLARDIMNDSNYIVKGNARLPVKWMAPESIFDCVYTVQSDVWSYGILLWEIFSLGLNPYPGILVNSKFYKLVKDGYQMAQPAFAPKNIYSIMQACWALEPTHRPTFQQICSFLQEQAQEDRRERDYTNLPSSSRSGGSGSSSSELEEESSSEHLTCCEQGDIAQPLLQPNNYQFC
Chain of CDK4 (P11802 whole entry): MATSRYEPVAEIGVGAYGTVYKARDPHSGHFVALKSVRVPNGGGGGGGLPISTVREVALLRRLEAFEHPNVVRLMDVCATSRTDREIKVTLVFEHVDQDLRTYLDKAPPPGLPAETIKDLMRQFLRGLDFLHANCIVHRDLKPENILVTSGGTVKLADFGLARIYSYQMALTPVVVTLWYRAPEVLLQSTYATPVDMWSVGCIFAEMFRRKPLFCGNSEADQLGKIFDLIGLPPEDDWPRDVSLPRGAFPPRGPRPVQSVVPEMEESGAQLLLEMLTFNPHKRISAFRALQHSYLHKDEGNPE
Chain of RPS6KA4 (O75676 whole entry, looked up): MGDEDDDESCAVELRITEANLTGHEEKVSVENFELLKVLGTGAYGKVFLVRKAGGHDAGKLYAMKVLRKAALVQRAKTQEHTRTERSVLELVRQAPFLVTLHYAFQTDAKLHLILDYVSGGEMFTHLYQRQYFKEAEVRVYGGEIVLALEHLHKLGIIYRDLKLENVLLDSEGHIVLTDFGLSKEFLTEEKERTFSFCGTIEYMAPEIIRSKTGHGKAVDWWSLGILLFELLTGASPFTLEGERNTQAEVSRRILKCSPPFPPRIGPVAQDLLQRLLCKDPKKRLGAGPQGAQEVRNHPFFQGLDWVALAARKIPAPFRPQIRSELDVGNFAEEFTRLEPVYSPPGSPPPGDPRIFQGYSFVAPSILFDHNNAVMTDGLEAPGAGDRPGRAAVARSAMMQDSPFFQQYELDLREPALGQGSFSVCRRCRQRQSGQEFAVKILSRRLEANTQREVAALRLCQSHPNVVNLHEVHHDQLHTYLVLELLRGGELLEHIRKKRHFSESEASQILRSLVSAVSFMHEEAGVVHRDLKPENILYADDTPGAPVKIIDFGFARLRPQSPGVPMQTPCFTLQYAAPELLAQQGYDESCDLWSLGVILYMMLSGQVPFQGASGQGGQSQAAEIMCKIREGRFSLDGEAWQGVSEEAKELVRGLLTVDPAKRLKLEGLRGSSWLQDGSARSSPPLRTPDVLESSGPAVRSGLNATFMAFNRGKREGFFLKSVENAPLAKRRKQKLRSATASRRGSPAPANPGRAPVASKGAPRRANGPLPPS
Chain of UniProt P00519 (P00519 whole entry): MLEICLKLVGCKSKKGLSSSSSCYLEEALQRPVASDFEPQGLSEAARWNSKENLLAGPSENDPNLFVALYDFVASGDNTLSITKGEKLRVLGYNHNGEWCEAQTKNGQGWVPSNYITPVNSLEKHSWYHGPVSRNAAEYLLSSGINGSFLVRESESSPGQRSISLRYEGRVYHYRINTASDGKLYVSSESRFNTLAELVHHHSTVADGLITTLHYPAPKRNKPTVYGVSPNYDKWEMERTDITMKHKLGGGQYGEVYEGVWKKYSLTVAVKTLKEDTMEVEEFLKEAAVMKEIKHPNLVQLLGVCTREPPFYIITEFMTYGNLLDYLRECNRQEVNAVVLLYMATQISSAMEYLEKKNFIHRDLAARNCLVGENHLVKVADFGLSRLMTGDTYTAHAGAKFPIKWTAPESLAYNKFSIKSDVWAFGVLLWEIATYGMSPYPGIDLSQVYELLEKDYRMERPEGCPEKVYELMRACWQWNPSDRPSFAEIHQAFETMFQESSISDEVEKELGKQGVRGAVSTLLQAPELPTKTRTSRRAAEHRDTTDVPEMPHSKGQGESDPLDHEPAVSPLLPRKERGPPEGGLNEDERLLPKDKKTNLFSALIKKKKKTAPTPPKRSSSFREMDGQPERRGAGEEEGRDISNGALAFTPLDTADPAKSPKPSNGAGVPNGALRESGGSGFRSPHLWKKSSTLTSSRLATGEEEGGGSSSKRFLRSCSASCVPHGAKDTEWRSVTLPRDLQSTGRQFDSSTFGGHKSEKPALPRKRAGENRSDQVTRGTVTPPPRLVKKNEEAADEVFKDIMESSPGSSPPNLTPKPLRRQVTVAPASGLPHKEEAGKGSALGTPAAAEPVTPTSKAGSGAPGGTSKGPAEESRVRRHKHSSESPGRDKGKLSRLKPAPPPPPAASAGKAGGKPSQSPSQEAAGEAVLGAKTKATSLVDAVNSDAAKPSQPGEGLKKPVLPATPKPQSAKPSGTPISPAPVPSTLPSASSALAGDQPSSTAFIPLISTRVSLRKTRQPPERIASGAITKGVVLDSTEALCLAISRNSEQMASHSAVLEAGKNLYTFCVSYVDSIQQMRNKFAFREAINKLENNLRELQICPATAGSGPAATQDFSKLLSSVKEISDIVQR
Chain of UniProt Q9Y2H1 (Q9Y2H1 whole entry, looked up): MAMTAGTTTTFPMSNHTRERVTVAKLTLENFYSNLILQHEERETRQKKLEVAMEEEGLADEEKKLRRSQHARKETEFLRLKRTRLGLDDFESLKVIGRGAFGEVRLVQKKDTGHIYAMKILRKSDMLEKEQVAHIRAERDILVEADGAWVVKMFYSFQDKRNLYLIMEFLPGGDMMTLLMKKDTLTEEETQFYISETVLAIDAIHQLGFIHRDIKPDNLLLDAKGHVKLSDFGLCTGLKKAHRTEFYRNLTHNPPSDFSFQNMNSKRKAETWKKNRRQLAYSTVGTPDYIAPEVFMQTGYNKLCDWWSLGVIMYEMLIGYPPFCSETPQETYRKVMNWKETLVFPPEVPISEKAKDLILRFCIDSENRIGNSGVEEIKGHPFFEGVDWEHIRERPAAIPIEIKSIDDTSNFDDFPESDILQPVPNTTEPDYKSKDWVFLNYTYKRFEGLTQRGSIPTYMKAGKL

Row | Compound | pIC50 ([1]; cell material: Jurkat cells) | pIC50 ([1]; cell material: Jurkat lysate) | pIC50 ([1]; cell material: Lysate mix) | pIC50 ([2]; cell material: Lysate mix) | pIC50 ([3]; cell material: Lysate mix) | pIC50 ([4]; cell material: Jurkat cells) | pIC50 ([4]; cell material: Lysate mix) | pIC50 [5] | pIC50 ([6]; cell material: Lysate mix) | pIC50 ([7]; cell material: Lysate mix) | pIC50 ([8]; cell material: Lysate mix) | pIC50 [9] | pIC50 [10] | pIC50 ([2]; cell material: Jurkat cells) | pIC50 ([2]; cell material: Jurkat lysate) | pIC50 ([3]; cell material: Jurkat cells) | pIC50 ([3]; cell material: Jurkat lysate) | pIC50 ([4]; cell material: Jurkat lysate) | pIC50 ([6]; cell material: Jurkat cells) | pIC50 ([6]; cell material: Jurkat lysate) | pIC50 ([7]; cell material: Jurkat cells) | pIC50 ([8]; cell material: Jurkat cells) | pIC50 ([8]; cell material: Jurkat lysate) | pIC50 ([7]; cell material: Jurkat lysate)
1 | CCNC(=O)c1cc(Nc2cc(C3CC3)[nH]n2)nc(N2CCN(Cc3ccc(S(=O)(=O)F)cc3)CC2)n1 |  |  |  |  | 5.52 |  |  | < 4.52 | 5.2 |  | 5.34 | 5.7 | 5.05 |  |  |  |  |  |  |  |  |  |  | 
2 | C#CCNC(=O)c1cc(Nc2cc(C3CC3)[nH]n2)nc(N2CCN(Cc3ccc(S(=O)(=O)F)cc3)CC2)n1 |  |  |  | 4.67 | 5.7 |  | 5.27 | < 4.52 | 5.21 |  | 5.56 | 6.52 |  | 5.64 | 4.67 | 6.39 | 5.11 | < 4.52 | 5.61 | < 4.52 | 6.28 | 5.84 | 4.83 | 5.56

The next lines start with results.

Row | pIC50 ([1]; cell material: Jurkat cells) | pIC50 ([1]; cell material: Jurkat lysate) | pIC50 ([1]; cell material: Lysate mix) | pIC50 ([2]; cell material: Lysate mix) | pIC50 ([3]; cell material: Lysate mix) | pIC50 ([4]; cell material: Jurkat cells) | pIC50 ([4]; cell material: Lysate mix) | pIC50 [5] | pIC50 ([6]; cell material: Lysate mix) | pIC50 ([7]; cell material: Lysate mix) | pIC50 ([8]; cell material: Lysate mix) | pIC50 [9] | pIC50 [10] | Compound | pIC50 ([2]; cell material: Jurkat cells) | pIC50 ([2]; cell material: Jurkat lysate) | pIC50 ([3]; cell material: Jurkat cells) | pIC50 ([3]; cell material: Jurkat lysate) | pIC50 ([4]; cell material: Jurkat lysate) | pIC50 ([6]; cell material: Jurkat cells) | pIC50 ([6]; cell material: Jurkat lysate) | pIC50 ([7]; cell material: Jurkat cells) | pIC50 ([8]; cell material: Jurkat cells) | pIC50 ([8]; cell material: Jurkat lysate) | pIC50 ([7]; cell material: Jurkat lysate)
3 | < 4.52 | < 4.52 | < 4.52 | < 4.52 | < 4.52 | 5.6 | < 4.52 | < 4.52 | < 4.52 | < 4.52 | < 4.52 |  |  | O=C(NCCNC(=O)c1cc(Nc2cc(C3CC3)[nH]n2)nc(N2CCN(Cc3ccc(S(=O)(=O)F)cc3)CC2)n1)OC1CC/C=C/CCC1 (centres undefined) | 4.86 | < 4.52 | 5.68 | < 4.52 | < 4.52 | < 4.52 | < 4.52 | 5.79 | 5.8 | < 4.52 | 
4 |  |  | < 4.52 | < 4.52 | < 4.52 |  | < 4.52 | < 4.52 | < 4.52 | < 4.52 | < 4.52 | < 4.52 | < 4.52 | Cc1cc(Nc2cc(C(=O)NCCNC(=O)OC3CC/C=C/CCC3)nc(N3CCN(Cc4ccc(S(=O)(=O)F)cc4)CC3)n2)n[nH]1 (centres undefined) |  |  |  |  |  |  |  |  |  |  | 
5 |  |  | < 4.52 | < 4.52 |  |  | < 4.52 | < 4.52 | 4.62 | < 4.52 |  | 5.46 | < 4.52 | CCNC(=O)c1cc(Nc2cc(C)[nH]n2)nc(N2CCN(Cc3ccc(S(=O)(=O)F)cc3)CC2)n1 |  |  |  |  |  |  |  |  |  |  | 
6 |  |  | < 4.52 | < 4.52 | < 4.52 |  |  |  |  | 4.77 | 4.84 | 5.8 |  | C#CCNC(=O)c1cc(Nc2cc(C)[nH]n2)nc(N2CCN(Cc3ccc(S(=O)(=O)F)cc3)CC2)n1 |  |  |  |  |  |  |  |  |  |  | 
